Oligonucleotides are written 5' to 3', each unit as a sugar letter and its base; * is a phosphorothioate linkage, no mark a phosphodiester; rarer units and linkages stand in square brackets, end groups in braces. Plain capitals give the bases only. d = 2'-deoxy (DNA); r = 2'-OH (RNA)
Note: test concentration or dose not given here.

One series concerns the target P2rx2 (rat). Kind of series: reporter assay of Huesken 2005. The settings on record: siRNA.
The substance “sense rGrCrCrArUrArArGrArArGrUrUrCrGrArCrArAdTdT / antisense rUrUrGrUrCrGrArArCrUrUrCrUrUrArUrGrGrCdTdG” yielded a normalised inhibition (eCFP-eYFP dual reporter) of 88.6%.

In turn, “sense rCrArGrCrArUrArUrGrGrGrArCrArArArGrArCdTdT / antisense rGrUrCrUrUrUrGrUrCrCrCrArUrArUrGrCrUrGdGdC” showed a normalised inhibition (eCFP-eYFP dual reporter) of 51.7%.

With “sense rGrArCrArGrCrUrGrGrArCrArUrGrCrArArGrGdTdT / antisense rCrCrUrUrGrCrArUrGrUrCrCrArGrCrUrGrUrCdCdG”, the normalised inhibition (eCFP-eYFP dual reporter) amounted to 35.3%.

“sense rUrGrCrCrArArGrUrArUrUrArCrArArGrArUrAdTdT / antisense rUrArUrCrUrUrGrUrArArUrArCrUrUrGrGrCrAdAdA” gave a normalised inhibition (eCFP-eYFP dual reporter) of 76.8%.

The substance “sense rCrArUrCrUrCrUrGrCrUrCrUrGrArCrUrGrArGdTdT / antisense rCrUrCrArGrUrCrArGrArGrCrArGrArGrArUrGdGdA” had a normalised inhibition (eCFP-eYFP dual reporter) of 42.7%.

The substance “sense rCrUrGrGrArCrArUrGrCrArArGrGrCrArArUrGdTdT / antisense rCrArUrUrGrCrCrUrUrGrCrArUrGrUrCrCrArGdCdT” gave a normalised inhibition (eCFP-eYFP dual reporter) of 55.2%.

In turn, “sense rCrUrArCrArArCrUrUrCrArGrGrUrUrUrGrCrCdTdT / antisense rGrGrCrArArArCrCrUrGrArArGrUrUrGrUrArGdCdC” registered a normalised inhibition (eCFP-eYFP dual reporter) of 57%.

In turn, “sense rUrGrGrCrCrArCrUrGrCrUrCrUrGrArCrCrUrCdTdT / antisense rGrArGrGrUrCrArGrArGrCrArGrUrGrGrCrCrAdGdA” showed a normalised inhibition (eCFP-eYFP dual reporter) of 57%.

“sense rUrGrUrCrUrGrArArUrCrArGrArGrUrGrCrArAdTdT / antisense rUrUrGrCrArCrUrCrUrGrArUrUrCrArGrArCrAdAdG” came in with a normalised inhibition (eCFP-eYFP dual reporter) of 80.9%.

The substance “sense rGrGrArGrArGrArArCrUrUrCrArCrArGrArArCdTdT / antisense rGrUrUrCrUrGrUrGrArArGrUrUrCrUrCrUrCrCdTdG” had a normalised inhibition (eCFP-eYFP dual reporter) of 61.7%.

The substance “sense rUrGrArCrCrCrUrUrGrCrCrCrUrUrGrUrCrUrUdTdT / antisense rArArGrArCrArArGrGrGrCrArArGrGrGrUrCrAdCdA” gave a normalised inhibition (eCFP-eYFP dual reporter) of 53.9%.

“sense rUrGrCrCrCrUrUrGrUrCrUrUrGrGrGrCrCrArGdTdT / antisense rCrUrGrGrCrCrCrArArGrArCrArArGrGrGrCrAdAdG” gave a normalised inhibition (eCFP-eYFP dual reporter) of 37%.

In another series the target is UBE2C. Briefly: reporter assay of Huesken 2005. Conditions: siRNA.
“sense rUrArGrUrCrCrCrUrUrGrArArCrArCrArCrArUdTdT / antisense rArUrGrUrGrUrGrUrUrCrArArGrGrGrArCrUrAdTdC” had a normalised inhibition (eCFP-eYFP dual reporter) of 76.1%.

In turn, “sense rArGrUrGrGrUrCrUrGrCrCrCrUrGrUrArUrGrAdTdT / antisense rUrCrArUrArCrArGrGrGrCrArGrArCrCrArCrUdTdT” returned a normalised inhibition (eCFP-eYFP dual reporter) of 61.1%.

“sense rCrUrCrCrArUrCrCrArGrArGrCrCrUrUrCrUrAdTdT / antisense rUrArGrArArGrGrCrUrCrUrGrGrArUrGrGrArGdAdG” had a normalised inhibition (eCFP-eYFP dual reporter) of 81.9%.

In turn, “sense rGrGrUrArUrArArGrCrUrCrUrCrGrCrUrArGrAdTdT / antisense rUrCrUrArGrCrGrArGrArGrCrUrUrArUrArCrCdTdC” yielded a normalised inhibition (eCFP-eYFP dual reporter) of 91.3%.

In turn, “sense rArArCrArUrUrGrArUrArGrUrCrCrCrUrUrGrAdTdT / antisense rUrCrArArGrGrGrArCrUrArUrCrArArUrGrUrUdGdG” showed a normalised inhibition (eCFP-eYFP dual reporter) of 93.1%.

Substance “sense rUrGrCrCrUrGrGrArCrArUrCrCrUrGrArArGrGdTdT / antisense rCrCrUrUrCrArGrGrArUrGrUrCrCrArGrGrCrAdTdA” had a normalised inhibition (eCFP-eYFP dual reporter) of 49.2%.

The substance “sense rGrArGrArArCrCrCrArArCrArUrUrGrArUrArGdTdT / antisense rCrUrArUrCrArArUrGrUrUrGrGrGrUrUrCrUrCdCdT” came in with a normalised inhibition (eCFP-eYFP dual reporter) of 66.3%.

Substance “sense rUrArArGrCrUrCrUrCrGrCrUrArGrArGrUrUrCdTdT / antisense rGrArArCrUrCrUrArGrCrGrArGrArGrCrUrUrAdTdA” gave a normalised inhibition (eCFP-eYFP dual reporter) of 60.2%.

In turn, “sense rCrArGrUrArUrArUrGrArArGrArCrCrUrGrArGdTdT / antisense rCrUrCrArGrGrUrCrUrUrCrArUrArUrArCrUrGdTdT” showed a normalised inhibition (eCFP-eYFP dual reporter) of 82.2%.

In the case of “sense rCrArUrGrCrUrGrCrCrGrArGrCrUrCrUrGrGrAdTdT / antisense rUrCrCrArGrArGrCrUrCrGrGrCrArGrCrArUrGdTdG”, the normalised inhibition (eCFP-eYFP dual reporter) amounted to 90.5%.

In turn, “sense rCrCrCrArGrUrGrGrCrUrArCrCrCrUrUrArCrAdTdT / antisense rUrGrUrArArGrGrGrUrArGrCrCrArCrUrGrGrGdGdA” displayed a normalised inhibition (eCFP-eYFP dual reporter) of 85.7%.

On to “sense rArCrCrCrUrUrArCrArArUrGrCrGrCrCrCrArCdTdT / antisense rGrUrGrGrGrCrGrCrArUrUrGrUrArArGrGrGrUdAdG”, for which the normalised inhibition (eCFP-eYFP dual reporter) was 47.4%.

Turning to “sense rArGrGrUrArUrArArGrCrUrCrUrCrGrCrUrArGdTdT / antisense rCrUrArGrCrGrArGrArGrCrUrUrArUrArCrCrUdCdA”, the normalised inhibition (eCFP-eYFP dual reporter) is 92.4%.

In turn, “sense rGrArArCrArGrUrArUrArUrGrArArGrArCrCrUdTdT / antisense rArGrGrUrCrUrUrCrArUrArUrArCrUrGrUrUrCdCdA” came in with a normalised inhibition (eCFP-eYFP dual reporter) of 86.9%.

In the case of “sense rArArGrArCrCrUrGrArGrGrUrArUrArArGrCrUdTdT / antisense rArGrCrUrUrArUrArCrCrUrCrArGrGrUrCrUrUdCdA”, the normalised inhibition (eCFP-eYFP dual reporter) was found to be 46.4%.

In turn, “sense rArUrGrUrCrArGrGrArCrCrArUrUrCrUrGrCrUdTdT / antisense rArGrCrArGrArArUrGrGrUrCrCrUrGrArCrArUdCdA” came in with a normalised inhibition (eCFP-eYFP dual reporter) of 56.5%.

“sense rCrUrGrArGrGrUrArUrArArGrCrUrCrUrCrGrCdTdT / antisense rGrCrGrArGrArGrCrUrUrArUrArCrCrUrCrArGdGdT” showed a normalised inhibition (eCFP-eYFP dual reporter) of 75.8%.

Turning to “sense rArArUrGrCrGrCrCrCrArCrArGrUrGrArArGrUdTdT / antisense rArCrUrUrCrArCrUrGrUrGrGrGrCrGrCrArUrUdGdT”, the normalised inhibition (eCFP-eYFP dual reporter) was 57.6%.

As to “sense rCrCrArUrCrCrArUrGrGrArGrCrArGrCrUrGrGdTdT / antisense rCrCrArGrCrUrGrCrUrCrCrArUrGrGrArUrGrGdTdC”, the normalised inhibition (eCFP-eYFP dual reporter) turned out to be 80.7%.

Consider “sense rArCrCrArUrCrCrArUrGrGrArGrCrArGrCrUrGdTdT / antisense rCrArGrCrUrGrCrUrCrCrArUrGrGrArUrGrGrUdCdC”, for which the normalised inhibition (eCFP-eYFP dual reporter) was found to be 62.1%.

“sense rUrCrCrUrGrArArGrGrArArArArGrUrGrGrUrCdTdT / antisense rGrArCrCrArCrUrUrUrUrCrCrUrUrCrArGrGrAdTdG”: the normalised inhibition (eCFP-eYFP dual reporter) is 71.8%.

Consider “sense rArGrArCrCrUrGrArGrGrUrArUrArArGrCrUrCdTdT / antisense rGrArGrCrUrUrArUrArCrCrUrCrArGrGrUrCrUdTdC”, for which the normalised inhibition (eCFP-eYFP dual reporter) is 71.7%.

Take “sense rGrCrCrUrGrGrArCrArUrCrCrUrGrArArGrGrAdTdT / antisense rUrCrCrUrUrCrArGrGrArUrGrUrCrCrArGrGrCdAdT”: the normalised inhibition (eCFP-eYFP dual reporter) amounted to 85.8%.

In the case of “sense rGrCrUrGrGrArArCrArGrUrArUrArUrGrArArGdTdT / antisense rCrUrUrCrArUrArUrArCrUrGrUrUrCrCrArGrCdTdG”, the normalised inhibition (eCFP-eYFP dual reporter) is 90.4%.

“sense rArGrUrArUrArUrGrArArGrArCrCrUrGrArGrGdTdT / antisense rCrCrUrCrArGrGrUrCrUrUrCrArUrArUrArCrUdGdT” came in with a normalised inhibition (eCFP-eYFP dual reporter) of 77.2%.

In turn, “sense rArUrGrCrUrGrCrCrGrArGrCrUrCrUrGrGrArAdTdT / antisense rUrUrCrCrArGrArGrCrUrCrGrGrCrArGrCrArUdGdT” came in with a normalised inhibition (eCFP-eYFP dual reporter) of 84.5%.

For “sense rCrCrUrGrGrArCrArUrCrCrUrGrArArGrGrArAdTdT / antisense rUrUrCrCrUrUrCrArGrGrArUrGrUrCrCrArGrGdCdA”, the normalised inhibition (eCFP-eYFP dual reporter) was found to be 74.2%.

Substance “sense rArCrArCrArCrArUrGrCrUrGrCrCrGrArGrCrUdTdT / antisense rArGrCrUrCrGrGrCrArGrCrArUrGrUrGrUrGrUdTdC” registered a normalised inhibition (eCFP-eYFP dual reporter) of 78%.

Consider “sense rArCrCrCrArGrGrGrUrArArCrArUrArUrGrCrCdTdT / antisense rGrGrCrArUrArUrGrUrUrArCrCrCrUrGrGrGrUdGdT”, for which the normalised inhibition (eCFP-eYFP dual reporter) came out at 39.6%.

“sense rCrArUrCrCrArGrArGrCrCrUrUrCrUrArGrGrAdTdT / antisense rUrCrCrUrArGrArArGrGrCrUrCrUrGrGrArUrGdGdA” registered a normalised inhibition (eCFP-eYFP dual reporter) of 78.6%.

On to “sense rArCrArUrArUrGrCrCrUrGrGrArCrArUrCrCrUdTdT / antisense rArGrGrArUrGrUrCrCrArGrGrCrArUrArUrGrUdTdA”, for which the normalised inhibition (eCFP-eYFP dual reporter) was 75.7%.

“sense rArGrCrUrGrGrArArCrArGrUrArUrArUrGrArAdTdT / antisense rUrUrCrArUrArUrArCrUrGrUrUrCrCrArGrCrUdGdC”: the normalised inhibition (eCFP-eYFP dual reporter) worked out at 97.5%.

The substance “sense rGrUrGrGrCrUrArCrCrCrUrUrArCrArArUrGrCdTdT / antisense rGrCrArUrUrGrUrArArGrGrGrUrArGrCrCrArCdTdG” returned a normalised inhibition (eCFP-eYFP dual reporter) of 87.8%.

Substance “sense rArGrUrGrGrCrUrArCrCrCrUrUrArCrArArUrGdTdT / antisense rCrArUrUrGrUrArArGrGrGrUrArGrCrCrArCrUdGdG” displayed a normalised inhibition (eCFP-eYFP dual reporter) of 76.9%.

Take “sense rArGrArGrUrUrCrCrCrCrArGrUrGrGrCrUrArCdTdT / antisense rGrUrArGrCrCrArCrUrGrGrGrGrArArCrUrCrUdAdG”: the normalised inhibition (eCFP-eYFP dual reporter) turned out to be 87%.

Turning to “sense rGrCrCrCrArCrArGrUrGrArArGrUrUrCrCrUrCdTdT / antisense rGrArGrGrArArCrUrUrCrArCrUrGrUrGrGrGrCdGdC”, the normalised inhibition (eCFP-eYFP dual reporter) came out at 46.7%.

For the substance “sense rUrArUrGrArUrGrUrCrArGrGrArCrCrArUrUrCdTdT / antisense rGrArArUrGrGrUrCrCrUrGrArCrArUrCrArUrAdCdA”, the normalised inhibition (eCFP-eYFP dual reporter) came to 32.1%.
